Measurements: PubChem BioAssay (NCI)
“And” between values parts separate entries of the source, which are not always exact repeats. Equal entries are not always repeated.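 How tested: cells in 96-well plates exposed to compound for 48 hours at five concentrations. GI50: concentration for 50% inhibition of growth. Definition used: TGI = concentration required for complete inhibition of growth.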

Key:
Assay in all cases: inhibition of tumour cell growth, NCI panel, 48 h
ACHN renal = system: ACHN renal
OVCAR-4 ovarian = system: OVCAR-4 ovarian
SK-MEL-2 melanoma = system: SK-MEL-2 melanoma
HL-60(TB) leukemia = system: HL-60(TB) leukemia
SF-295 CNS = system: SF-295 CNS
HCC-2998 colon = system: HCC-2998 colon
SK-OV-3 ovarian = system: SK-OV-3 ovarian
SR leukemia = system: SR leukemia
T-47D breast = system: T-47D breast
NCI/ADR-RES ovarian = system: NCI/ADR-RES ovarian

Row | Compound | GI50 (ACHN renal) [µM] | TGI (ACHN renal) [µM] | GI50 (OVCAR-4 ovarian) [µM] | TGI (OVCAR-4 ovarian) [µM] | GI50 (SK-MEL-2 melanoma) | TGI (SK-MEL-2 melanoma) [µM] | GI50 (HL-60(TB) leukemia) [µM] | TGI (HL-60(TB) leukemia) [µM] | GI50 (SF-295 CNS) [µM] | TGI (SF-295 CNS) [µM] | GI50 (HCC-2998 colon) [µM] | TGI (HCC-2998 colon) [µM] | TGI (SK-OV-3 ovarian) [µM] | TGI (SR leukemia) [µM] | TGI (T-47D breast) [µM] | TGI (NCI/ADR-RES ovarian) [µM] | GI50 (T-47D breast) [µM] | GI50 (NCI/ADR-RES ovarian) [µM] | GI50 (SK-OV-3 ovarian) [µM] | GI50 (SR leukemia) [µM]
1 | Cn1cc(-c2cc3c(N4CCN(c5ncc([C@@](C)(N)c6ccc(F)cc6)cn5)CC4)ncnn3c2)cn1 | 3.26 | > 100 | 2.45 | > 100 | 25.4 µM | > 100 | 3.8 | > 100 | 3.56 | > 100 | 4.23 | > 100 | – | – | – | – | – | – | – | –
2 | N#CC(C(=O)CCC(=O)Nc1ccc(Cl)c(Cl)c1)c1ccccc1 (centres undefined) | – | > 100 | – | > 100 | – | > 100 | – | > 100 | – | > 100 | – | > 100 | – | – | – | – | – | – | – | –
3 | O=C(Nc1nc(=S)[nH][nH]1)C(=O)C(C(=O)c1ccc2ccccc2c1)C1OC(=O)c2ccccc21 (centres undefined) | – | > 100 | – | 58.2 | – | 53.2 | – | – | – | – | – | 24 | > 100 | – | – | – | – | – | – | –
4 | O=C(NC1C=CCC2C(=O)N(c3ccccc3)C(=O)C12)OCc1ccccc1 (centres undefined) | – | > 100 | – | > 100 | – | > 100 | – | > 100 | – | > 100 | – | > 100 | > 100 | > 100 | – | – | – | – | – | –
5 | CN1C(=O)C(=O)N2c3ccc(Cl)cc3C3(c4ccccc4)N=CC12O3 (centres undefined) | – | 17.7 | – | 8.43 | – | 30.5 | – | 6.26 | – | 23.2 | – | 28.4 | 21.7 | – | – | – | – | – | – | –
6 | CCC(C)SC1SCC2C(=O)N(C)C3(CC3C)C(=O)OCC(NC(=O)c3nc4ccccc4cc3O)C(=O)NC(C)C(=O)N(C)C1C(=O)N(C)C1(CC1C)C(=O)OCC(NC(=O)c1nc3ccccc3cc1O)C(=O)NC(C)C(=O)N2C (centres undefined) | 0.000296 | 0.221 | 0.000187 | 0.0182 | – | 0.000304 | – | 0.00488 | – | 0.00153 | – | 0.000369 | – | – | 0.00514 | 6.15 | – | – | – | –
7 | Cc1nc(-c2nc(C)c(C(=O)NNC(=O)C[n+]3ccccc3)s2)sc1C(=O)NNC(=O)C[n+]1ccccc1 | – | > 100 | – | – | – | > 100 | – | > 100 | – | > 100 | – | > 100 | > 100 | – | – | – | – | – | – | –
8 | CN(C)CC(O)c1ccc(/C=C/c2ccc(Cl)cc2)cc1 (centres undefined) | 1.63 | 3.01 | 2.49 | 6.58 | – | – | 1.11 | 2.7 | 1.53 | 3 | 1.54 | 2.97 | 26.5 | – | 16.6 | 3.19 | 3.76 | 1.67 | 13 | –
9 | CC1(C)CC(c2c[nH]c3ccccc23)=CC2=Nc3ccccc3C21O (centres undefined) | – | > 100 | – | > 100 | – | > 100 | – | > 100 | – | > 100 | – | – | > 100 | – | – | – | – | – | – | –
10 | Clc1ccc2cccc3c2c1C1OC3c2ccccc21 (centres undefined) | – | > 100 | – | – | – | > 100 | – | > 100 | – | > 100 | – | > 100 | > 100 | > 100 | – | – | – | – | – | –
11 | CCOC(=O)n1cc(C2=C(c3ccc(OC)c(OC)c3)COC2=O)c2ccccc21 | 0.0615 | > 73.1 | 2.36 | > 100 | 0.402 µM | > 100 | 0.0279 | 0.0851 | 0.0388 | > 100 | 0.0891 | 16.5 | > 100 | > 100 | – | > 100 | – | 0.0415 | 0.817 | 0.0297
12 | S=P1(Oc2ccccc2)NNP2(=NP(N3CC3)(N3CC3)=NP(N3CC3)(N3CC3)=N2)NN1 (centres undefined) | – | > 100 | – | > 100 | – | > 100 | – | > 100 | – | – | – | > 100 | > 100 | – | – | – | – | – | – | –
13 | COC1=CC(=O)C(C2(OC(C)C)OC(=O)C(Cl)=C2Cl)=CC1=O (centres undefined) | – | > 100 | – | – | – | 98.8 | – | 1.55 | – | > 100 | – | > 100 | > 100 | – | > 100 | > 100 | – | – | – | –
14 | CCOC(=O)C1Sc2ccccc2N=C1C (centres undefined) | – | > 100 | – | > 100 | – | > 100 | – | > 100 | – | > 100 | – | > 100 | – | > 100 | – | – | – | – | – | –
15 | CC(=O)[O-].CC(=O)[O-].O=C(N/N=C/c1cc(Cl)cc(Cl)c1O)c1ccncc1.[Cu+2] | – | > 100 | – | – | > 100 µM | > 100 | – | > 100 | – | > 100 | – | > 100 | > 100 | > 100 | – | – | – | – | – | –
16 | O=C(O)CSc1n[nH]c(-c2ccccc2O)n1 | – | > 100 | – | > 100 | – | > 100 | – | > 100 | – | > 100 | – | > 100 | – | > 100 | – | – | – | – | – | –
17 | C#Cc1cccc(Nc2nc3cc([N+](=O)[O-])ccc3nc2Nc2ccc(O)cc2)c1 | 1.61 | 4.01 | 1.99 | 5.03 | 2.07 µM | 4.36 | 2.42 | 5.63 | – | – | 1.75 | 3.45 | 5.97 | – | 6.24 | 4.37 | 1.93 | 1.84 | 2.34 | –

Row | Compound | GI50 (ACHN renal) [µM] | TGI (ACHN renal) [µM] | GI50 (OVCAR-4 ovarian) [µM] | TGI (OVCAR-4 ovarian) [µM] | GI50 (SK-MEL-2 melanoma) | TGI (SK-MEL-2 melanoma) [µM] | GI50 (HL-60(TB) leukemia) [µM] | TGI (HL-60(TB) leukemia) [µM] | GI50 (SF-295 CNS) [µM] | TGI (SF-295 CNS) [µM] | GI50 (HCC-2998 colon) [µM] | TGI (HCC-2998 colon) [µM] | TGI (SK-OV-3 ovarian) [µM] | TGI (SR leukemia) [µM] | TGI (T-47D breast) [µM] | TGI (NCI/ADR-RES ovarian) [µM] | GI50 (T-47D breast) [µM] | GI50 (NCI/ADR-RES ovarian) [µM] | GI50 (SK-OV-3 ovarian) [µM] | GI50 (SR leukemia) [µM]
18 | Cc1[cH-]c(=O)n(-c2ccccc2)n1.[Au+].[Au].c1ccc([PH+](c2ccccc2)c2ccccc2)cc1.c1ccc([PH+](c2ccccc2)c2ccccc2)cc1 | 22.3 | 58.6 | 32.2 | > 100 | 4.64 µM and 8.64 µM | 23.5 | 15.2 | 41.1 | 15.1 | 35.2 | > 100 | > 100 | > 100 | > 100 | – | – | – | – | 40.4 | 26.4
19 | C=C(C)C12OC1[C@@]1(C)C(=CC2=O)CCC(O)[C@@H]1C (some centres undefined) | – | 2.42 | – | > 100 | – | 20.1 | – | 4.26 | – | > 100 | – | 17.6 | – | 11.3 | 78.4 | – | – | – | – | –
20 | COc1c(CC(C)=O)ccc2c1C(=O)c1ccc(C=O)c(OC(C)=O)c1C2=O | – | 51.3 | – | 30.4 | – | 30.3 | – | 22.4 | – | 53.3 | – | 24.5 | > 100 | – | – | – | – | – | – | –
21 | CCCCCCCCCCCCNC(=S)OC | – | 33 | – | 38.6 | – | 31.1 | – | 27.9 | – | 36 | – | 32.9 | 35 | 17.9 | – | – | – | – | – | –
22 | [O-][Cl+3]([O-])([O-])[O-].[O]=[Ru]=[O].c1ccc(-c2ccccn2)nc1.c1ccc(-c2ccccn2)nc1 | > 100 | > 100 | > 100 | > 100 | > 100 µM | > 100 | > 100 | > 100 | 60.2 | > 100 | 88.6 | > 100 | > 100 | 34.7 | – | – | – | – | > 100 | 4.07
23 | CCOC(=O)C1=C(C)N(NC(=O)Nc2ccccc2)C2(N)N(NC(=O)Nc3ccccc3)C(C)=C(C(=O)OCC)C12C(=O)OCC (centres undefined) | – | > 100 | – | > 100 | – | > 100 | – | > 100 | – | > 100 | – | 80.8 | > 100 | > 100 | – | – | – | – | – | –
24 | Cc1ccc(S(=O)(=O)N2CCC2c2ccccc2)cc1 (centres undefined) | – | > 100 | – | > 100 | – | > 100 | – | 40.6 | – | > 100 | – | > 100 | > 100 | – | – | – | – | – | – | –
25 | O=c1c2cccnc2ncn1CCN1CCCCC1 | – | > 100 | – | > 100 | – | > 100 | – | – | – | > 100 | – | > 100 | > 100 | > 100 | – | – | – | – | – | –
26 | O=S1C(=c2ccc(=C3Sc4ccccc4S3)cc2)Sc2ccccc21 (centres undefined) | – | 37.6 | – | > 100 | – | 50.6 | – | > 100 | – | 31.2 | – | 30.3 | 37 | > 100 | – | – | – | – | – | –
27 | COc1ccc(C(c2cc(OC)c(OC)c(OC)c2)n2cncn2)cc1O (centres undefined) | 0.653 | > 100 | 3.02 | > 100 | 0.361 µM | > 100 | 0.261 | 0.687 | 0.325 | > 100 | 1.35 | > 100 | > 100 | – | – | > 100 | – | 1.18 | 0.402 | –
28 | CCCOc1nc(N)c2cnn(C3CCCCO3)c2n1 (centres undefined) | – | > 100 | – | > 100 | – | > 100 | – | > 100 | – | > 100 | – | > 100 | > 100 | > 100 | – | – | – | – | – | –
29 | CN(C)CC1CCC/C1=N/OC(=O)c1ccccc1 (centres undefined) | – | > 100 | – | > 100 | – | > 100 | – | – | – | > 100 | – | > 100 | > 100 | > 100 | – | – | – | – | – | –
30 | CC#Cc1ccc(-c2ccccc2)s1 | – | > 100 | – | > 100 | – | > 100 | – | > 100 | – | > 100 | – | – | – | > 100 | – | > 100 | – | – | – | –
31 | O=c1[nH]c(-c2ccccc2)nc2cc(Cl)ccc12 | – | > 100 | – | > 100 | – | > 100 | – | > 100 | – | > 100 | – | > 100 | > 100 | – | – | – | – | – | – | –
32 | CN(C)C(=S)/N=c1\ssc(=S)n1C1CCCCC1 | – | > 100 | – | > 100 | – | > 100 | – | 32.5 | – | > 100 | – | > 100 | > 100 | 63.1 | – | – | – | – | – | –
33 | O=C(/C=C/c1c(O)ccc2ccccc12)c1ccc([N+](=O)[O-])cc1 | – | 54 | – | 36 | – | > 100 | – | 48.6 | – | > 100 | – | > 100 | > 100 | > 100 | – | – | – | – | – | –
